In US20100216249A1, “DNA-Based Biosensors” (ISIS INNOVATION LIMITED, priority 2007, published 2010):

What was measured:
lacR = lacR (Escherichia coli, UniProt P03023); experiment: sensing a lactose analog (IPTG) using DNA biosensors (lacR-dependent DNA coincidence); format: binding, bacteria
From the text: (§1) An example of sensing the concentration of a small molecule using protein-dependent DNA coincidence. In the absence (or low concentration) of the molecule to be sensed (yellow triangle), the transcription factor binds to DNA with high affinity and gives rise to DNA coincidence detected by single-molecule fluorescence.
FIG. 16. Sensing a lactose analog (IPTG) using DNA biosensors. […] A plot of the number of molecules with intermediate stoichiometry can be used as a calibration curve to identify the concentration of the small molecule, provided that the concentration is not much higher or much lower than the Kd for the interaction of the small molecule with the DNA-binding protein.

lac repressor (lacR) = lac repressor (lacR) (Escherichia coli, UniProt P03023); experiment: Sensing a lactose analog (IPTG) using DNA biosensors: IPTG-dependent loss of lacR-assembled full DNA site, detected by single-molecule fluorescence (protein-dependent DNA coincidence); format: binding, bacteria; conditions: FIG. 16; IPTG interaction with lacR (tetrameric bacterial repressor); fraction of bursts with intermediate stoichiometry vs IPTG concentration
From the text: For the purposes of our assay, the fluorophores can be placed far from the protein binding site (as long as the fluorophores are spaced by less than approximately 200 base pairs); as such, there is no perturbation of protein-DNA binding and no information about the exact structure of the protein-DNA complex is necessary. The concept is described in FIG. 3. In the absence of a DNA-binding protein, for example, a dimeric protein, such as a dimeric transcription factor, two DNA fragments with short and complementary single-stranded DNA tails diffuse independently in solution (top panel). In the presence of a DNA-binding protein that binds specifically to the fully assembled DNA site, the two DNA fragments diffuse as a single molecular complex (a 1:1 donor-acceptor species); such a species can be easily differentiated from the free DNA half-sites and can be counted, giving information about the concentration of the specific DNA-binding protein. […]
as §1, with “fluorescence. […]” for “fluorescence.”

Chain of lacR (P03023 whole entry): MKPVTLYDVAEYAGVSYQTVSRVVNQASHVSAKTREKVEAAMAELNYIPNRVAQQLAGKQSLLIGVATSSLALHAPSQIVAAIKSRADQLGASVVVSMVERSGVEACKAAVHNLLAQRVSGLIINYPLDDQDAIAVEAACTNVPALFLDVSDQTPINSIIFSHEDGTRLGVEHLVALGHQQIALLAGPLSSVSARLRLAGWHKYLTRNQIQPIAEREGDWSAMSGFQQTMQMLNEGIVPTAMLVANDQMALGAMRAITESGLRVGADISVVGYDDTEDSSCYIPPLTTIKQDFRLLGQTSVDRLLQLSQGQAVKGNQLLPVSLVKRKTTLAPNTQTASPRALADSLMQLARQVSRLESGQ
Chain of lac repressor (lacR) (P03023 whole entry): as above

## CC(C)S[C@@H]1O[C@H](CO)[C@H](O)[C@H](O)[C@H]1O [IPTG]
lacR; high concentration of IPTG, relative fraction of bursts with intermediate stoichiometry decreases
  lacR assembly of the full DNA site: does not assemble the full site
lacR; low concentration of IPTG, relative fraction of bursts with intermediate stoichiometry increases
  lacR assembly of the full DNA site: does bind and assemble the full site
Lac repressor (lacR)
  Kd: 1000 to 2000 nM
